Source: paper PMC9027532, “Preclinical Pharmacokinetic Studies of a Novel Diuretic Inhibiting Urea Transporters” (Molecules, 2022)
Where two headings read alike, the source gives them in different places.

How the values were obtained:
[1] = Tissue distribution study in rats; assay type: in vivo, SD rats; settings: male, Sprague-Dawley, rat, single oral dose 100 mg/kg; for Kp: read-out: Kp (tissue plasma distribution coefficient)
Text: Compound 25a was extensively distributed in most tissues of rats, and the drug concentration was high in organs with abundant hemoperfusions, such as the kidney, heart, lung, and spleen, among which the drug concentration was the highest in the kidney, with a tissue plasma distribution coefficient Kp = 1.67. The high kidney distribution is a good characteristic for diuretics targeting UTs, because the UTs in the renal inner medullary collecting duct (UT-A1/3) and renal vasa recta microvessels (UT-B) play vital roles in urea recycling and urine concentration. […] Thus, the potential risk of 25a for the central nervous system and male reproductive system is probably low.
Twenty-four SD rats were randomly divided into six groups and received a single oral dose of 25a at 100 mg/kg. Blood and tissues samples (i.e., brain, heart, lungs, liver, spleen, kidneys, muscle, skin, fat, testes, and leg bones) were collected at 0.25 h, 0.5 h, 2 h, 6 h, 12 h, and 24 h after dosing. The tissue samples were rinsed with cold saline and dried on filter papers, weighed, and homogenized with fivefold volumes of ultrapure water using a homogenizer (T10, IKA, Staufen, Germany) on ice. The right shin bone of the rat was crushed and soaked in methanol for 12 h at 4 °C. Tissue homogenate or bone soak solution was prepared and analyzed using the above method. Samples were stored at −80 °C until analysis.

[2] = Stability of 25a in rat plasma, urine, feces and bile under storage conditions; assay type: in vitro ADME
Experimental: The stability profiles of 25a in the given matrices stored under different conditions (4 °C for 24 h, 25 °C for 4 h, three freeze–thaw cycles, and −80 °C for 30 days) are shown in Table 5.
The accuracy and precision were evaluated by calculating the intraday and interday RE and CV of the QC samples. The RE should be within ±15% of the theoretical concentrations (3, 100, and 800 ng/mL). The CV values should be no more than 15%. For the LLOQ, the cutoff values of RE and CV were 100% ± 20% and <20%. The stability of 25a in the biological matrices (rat plasma, urine, fecal homogenate, and bile) was assessed at 3, 100, and 800 ng/mL (n = 6) under different storage conditions, which included storage at room temperature for 4 h, storage at 4 °C for 24 h, three freeze–thaw cycles, and storage at −80 °C for 30 days.

rats = system: rats; parameters: method as in PMID 34601246; settings: orally administered; cited from earlier work
[3] = plasma (tissue distribution study)

CC(=O)Nc1ccc(NC(=O)c2ccc(C(C)=O)o2)cc1 [Compound 25a, N-(4-acetamidophenyl)-5-acetylfuran-2-carboxamide]
AUC(0-t) ([1]; bone): 2680 ± 660 ng·h/mL
Cmax ([1]; bone): 413 ± 150 ng/mL
Tmax ([1]; bone): 66 ± 54 min
half-life ([1]; bone): 222 ± 30 min
Kp ([1]; bone): 0.4
AUC(0-t) ([1]; brain): 1390 ± 602 ng·h/mL
Cmax ([1]; brain): 820 ± 769 ng/mL
Tmax ([1]; brain): 54 ± 36 min
half-life ([1]; brain): 366 ± 168 min
Kp ([1]; brain): 0.27
AUC(0-t) ([1]; fat): 1570 ± 650 ng·h/mL
Cmax ([1]; fat): 333 ± 238 ng/mL
Tmax ([1]; fat): 78 ± 48 min
half-life ([1]; fat): 396 ± 252 min
Kp ([1]; fat): 0.31
AUC(0-t) ([1]; heart): 4160 ± 1010 ng·h/mL
Cmax ([1]; heart): 631 ± 64.8 ng/mL
Tmax ([1]; heart): 48 ± 42 min
half-life ([1]; heart): 210 ± 36 min
Kp ([1]; heart): 0.8
AUC(0-t) ([1]; kidney): 8670 ± 1510 ng·h/mL
Cmax ([1]; kidney): 1480 ± 473 ng/mL
Tmax ([1]; kidney): 24 ± 6 min
half-life ([1]; kidney): 252 ± 48 min
Kp ([1]; kidney): 1.67
AUC(0-t) ([1]; liver): 1650 ± 1000 ng·h/mL
Cmax ([1]; liver): 183 ± 144 ng/mL
Tmax ([1]; liver): 216 ± 150 min
half-life ([1]; liver): 378 ± 204 min
Kp ([1]; liver): 0.22
AUC(0-t) ([1]; lung): 3720 ± 880 ng·h/mL
Cmax ([1]; lung): 1130 ± 1010 ng/mL
Tmax ([1]; lung): 24 ± 6 min
half-life ([1]; lung): 216 ± 42 min
Kp ([1]; lung): 0.72
AUC(0-t) ([1]; muscle): 4000 ± 790 ng·h/mL
Cmax ([1]; muscle): 728 ± 216 ng/mL
Tmax ([1]; muscle): 48 ± 42 min
half-life ([1]; muscle): 192 ± 24 min
Kp ([1]; muscle): 0.79
AUC(0-t) [1, 3]: 5200 ± 1590 ng·h/mL
Cmax [1, 3]: 1120 ± 132 ng/mL
Tmax [1, 3]: 18 min
half-life [1, 3]: 342 ± 288 min
Kp [1, 3]: 1
AUC(0-t) ([1]; skin): 4830 ± 1080 ng·h/mL
Cmax ([1]; skin): 701 ± 124 ng/mL
Tmax ([1]; skin): 156 ± 126 min
half-life ([1]; skin): 216 ± 30 min
Kp ([1]; skin): 0.93
AUC(0-t) ([1]; spleen): 4270 ± 2630 ng·h/mL
Cmax ([1]; spleen): 934 ± 793 ng/mL
Tmax ([1]; spleen): 54 ± 36 min
half-life ([1]; spleen): 270 ± 48 min
Kp ([1]; spleen): 0.82
AUC(0-t) ([1]; testis): 338 ± 144 ng·h/mL
Cmax ([1]; testis): 50.6 ± 26.4 ng/mL
Tmax ([1]; testis): 360 min
Kp ([1]; testis): 0.06
Stability RE ([2]; rat bile, HQC 800 ng/mL, 4 °C for 24 h): −7.1%
Stability RE ([2]; rat bile, HQC 800 ng/mL, 25 °C for 4 h): −7.8%
Stability RE ([2]; rat bile, HQC 800 ng/mL, three freeze–thaw cycles): −12.2%
Stability RE ([2]; rat bile, HQC 800 ng/mL, −80 °C for 30 days): −7.1%
Stability RE ([2]; rat bile, LQC 3 ng/mL, 4 °C for 24 h): −14.7%
Stability RE ([2]; rat bile, LQC 3 ng/mL, 25 °C for 4 h): −14.9%
Stability RE ([2]; rat bile, LQC 3 ng/mL, three freeze–thaw cycles): −5.8%
Stability RE ([2]; rat bile, LQC 3 ng/mL, −80 °C for 30 days): −2.1%
Stability RE ([2]; rat bile, MQC 100 ng/mL, 4 °C for 24 h): −3.9%
Stability RE ([2]; rat bile, MQC 100 ng/mL, 25 °C for 4 h): −5.1%
Stability RE ([2]; rat bile, MQC 100 ng/mL, three freeze–thaw cycles): −5.2%
Stability RE ([2]; rat bile, MQC 100 ng/mL, −80 °C for 30 days): −3.9%
Stability RE ([2]; rat feces, HQC 800 ng/mL, 4 °C for 24 h): −5.3%
Stability RE ([2]; rat feces, HQC 800 ng/mL, 25 °C for 4 h): −2.4%
Stability RE ([2]; rat feces, HQC 800 ng/mL, three freeze–thaw cycles): −9.1%
Stability RE ([2]; rat feces, HQC 800 ng/mL, −80 °C for 30 days): −5.3%
Stability RE ([2]; rat feces, LQC 3 ng/mL, 4 °C for 24 h): 3.9%
Stability RE ([2]; rat feces, LQC 3 ng/mL, 25 °C for 4 h): −5.2%
Stability RE ([2]; rat feces, LQC 3 ng/mL, three freeze–thaw cycles): −5.2%
Stability RE ([2]; rat feces, LQC 3 ng/mL, −80 °C for 30 days): 1.2%
Stability RE ([2]; rat feces, MQC 100 ng/mL, 4 °C for 24 h): 4.8%
Stability RE ([2]; rat feces, MQC 100 ng/mL, 25 °C for 4 h): 1.3%
Stability RE ([2]; rat feces, MQC 100 ng/mL, three freeze–thaw cycles): −3.2%
Stability RE ([2]; rat feces, MQC 100 ng/mL, −80 °C for 30 days): 4.8%
Stability RE ([2]; rat plasma, HQC 800 ng/mL, 4 °C for 24 h): −4.5%
Stability RE ([2]; rat plasma, HQC 800 ng/mL, 25 °C for 4 h): −3.1%
Stability RE ([2]; rat plasma, HQC 800 ng/mL, three freeze–thaw cycles): −7.6%
Stability RE ([2]; rat plasma, HQC 800 ng/mL, −80 °C for 30 days): −4.5%
Stability RE ([2]; rat plasma, LQC 3 ng/mL, 4 °C for 24 h): 2.8%
Stability RE ([2]; rat plasma, LQC 3 ng/mL, 25 °C for 4 h): −4.9%
Stability RE ([2]; rat plasma, LQC 3 ng/mL, three freeze–thaw cycles): −3.6%
Stability RE ([2]; rat plasma, LQC 3 ng/mL, −80 °C for 30 days): 1.1%
Stability RE ([2]; rat plasma, MQC 100 ng/mL, 4 °C for 24 h): 3.7%
Stability RE ([2]; rat plasma, MQC 100 ng/mL, 25 °C for 4 h): −2.5%
Stability RE ([2]; rat plasma, MQC 100 ng/mL, three freeze–thaw cycles): −4.0%
Stability RE ([2]; rat plasma, MQC 100 ng/mL, −80 °C for 30 days): 3.7%
stability during sample preparation and storage ([2]; rat plasma, urine, feces, bile, 4 °C 24 h, 25 °C 4 h, three freeze–thaw cycles, −80 °C 30 days): stable
Stability RE ([2]; rat urine, HQC 800 ng/mL, 4 °C for 24 h): −2.3%
Stability RE ([2]; rat urine, HQC 800 ng/mL, 25 °C for 4 h): −2.3%
Stability RE ([2]; rat urine, HQC 800 ng/mL, three freeze–thaw cycles): −1.5%
Stability RE ([2]; rat urine, HQC 800 ng/mL, −80 °C for 30 days): −2.3%
Stability RE ([2]; rat urine, LQC 3 ng/mL, 4 °C for 24 h): −8.3%
Stability RE ([2]; rat urine, LQC 3 ng/mL, 25 °C for 4 h): 3.2%
Stability RE ([2]; rat urine, LQC 3 ng/mL, three freeze–thaw cycles): 5.8%
Stability RE ([2]; rat urine, LQC 3 ng/mL, −80 °C for 30 days): 6.2%
Stability RE ([2]; rat urine, MQC 100 ng/mL, 4 °C for 24 h): 2.5%
Stability RE ([2]; rat urine, MQC 100 ng/mL, 25 °C for 4 h): 4.3%
Stability RE ([2]; rat urine, MQC 100 ng/mL, three freeze–thaw cycles): −5.2%
Stability RE ([2]; rat urine, MQC 100 ng/mL, −80 °C for 30 days): 2.5%
Na+, K+, and Cl− levels in the blood (rats): without disturbing
duration of urea-selective diuresis (rats): 8 h
urine output vs vehicle control (rats): three times higher urine output than vehicle control
